According to patent US7384949B2, “Thieno(3,2-d)pyrimidines and furano(3,2-d)pyrimidines and their use as purinergic receptor antagonists” (Vernalis Research Limited, priority 2001, dated 2008):

Compound	melting point
CN(C)c1nc(-c2ccco2)c2scc(NC(=O)c3ccccc3)c2n1 [Example 57, N-(2-dimethylamino-4-(2-furyl)thieno[3,2-d]pyrimidine-7-yl)benzamide]	192.2 to 192.8 °C
CN(C)c1nc(-c2cnn(C)c2)c2sccc2n1 [Example 186, N,N-dimethyl-4-(1-methyl-1H-pyrazol-4-yl)thieno[3,2-d]pyrimidine-2-amine]	175.4 to 175.9 °C
CN(C)c1nc(-c2ccco2)c2scc(NC(=O)Nc3ccccc3)c2n1 [Example 55, N-(2-dimethylamino-4-(2-furyl)thieno[3,2-d]pyrimidine-7-yl)-N′-phenylurea]	244.4 to 244.9 °C
CN(C)c1nc(-c2ccnn2C)c2sccc2n1 [Example 184, N,N-dimethyl-4-(1-methyl-1H-pyrazol-5-yl)thieno[3,2-d]pyrimidine-2-amine]	126.5 to 127 °C
OC[C@H]1CCCN1c1nc(-c2cccs2)c2sccc2n1 [Example 4, (2R)-2-(2-hydroxymethylpyrrolidin-1-yl)-4-(2-thienyl)thieno[3,2-d]pyrimidine]	128.5 to 128.9 °C
CCSc1nc(-c2ccco2)c2sccc2n1 [Example 37, 2-ethylthio-4-(2-furyl)thieno[3,2-d]pyrimidine]	207 to 208 °C
Cc1csc2c(-c3ccco3)nc(Cl)nc12 [Example 12, 2-chloro-4-(2-furyl)-7-methylthieno[3,2-d]pyrimidine]	164.4 to 164.9 °C
OC[C@H]1CCCN1c1nc(-c2ccco2)c2scc(Br)c2n1 [Example 72, (2R)-7-bromo-4-(2-furyl)-2-(2-hydroxymethylpyrrolidin-1-yl)thieno[3,2-d]pyrimidine]	75.4 to 76.3 °C
NC(=O)c1nc(-c2ccco2)c2sccc2n1 [Example 155, 4-(2-furyl)thieno[3,2-d]pyrimidine-2-carboxamide]	300 °C (dec.)
CN(C)c1nc(-c2ccsc2)c2sccc2n1 [Example 157, N,N-dimethyl-4-(3-thienyl)thieno[3,2-d]pyrimidine-2-amine]	119 to 119.4 °C
COc1ccc(CNc2nc(-c3nccs3)c3sccc3n2)cc1OC [Example 108, N-(3,4-dimethoxybenzyl)-4-(2-thiazolyl)thieno[3,2-d]pyrimidine-2-amine]	178.7 to 179.5 °C
CC(=O)CC(=O)N(C)c1nc(-c2ccco2)c2sccc2n1 [Example 60, N-(4-(2-furyl)thieno[3,2-d]pyrimidine-2-yl)-N-methyl-3-oxobutanamide]	108.3 to 108.6 °C
COc1ccc(CNc2nc(-c3ccco3)c3sccc3n2)cc1OC [Example 78, N-(3,4-dimethoxybenzyl)-4-(2-furyl)thieno[3,2-d]pyrimidine-2-amine]	155 to 156 °C
CN(C)c1nc(-c2nccn2COCC[Si](C)(C)C)c2sccc2n1	131 to 132 °C
CN(C)c1nc(-c2ccco2)c2scc(Br)c2n1 [Example 22, 7-bromo-N,N-dimethyl-4-(2-furyl)thieno[3,2-d]pyrimidine-2-amine]	118.7 to 119.5 °C
CN(C)c1nc(-c2ccco2)c2scc([N+](=O)[O-])c2n1 [Example 44, N,N-dimethyl-4-(2-furyl)-7-nitrothieno[3,2-d]pyrimidine-2-amine]	182.8 to 183.8 °C
CCc1nc(-c2nccn2COC)c2sccc2n1 [Example 179, 2-ethyl-4-(1-methoxymethyl-1H-imidazol-2-yl)thieno[3,2-d]pyrimidine]	69 to 70 °C
FC(F)(F)c1nc(-c2ccco2)c2sccc2n1 [Example 11, 4-(2-furyl)-2-trifluoromethylthieno[3,2-d]pyrimidine]	147.6 to 148.8 °C

Compound	melting point
Cc1csc2c(-c3ccco3)nc(NCCO)nc12 [Example 16, 4-(2-furyl)-N-(2-hydroxyethyl)-7-methylthieno[3,2-d]pyrimidine-2-amine]	149.9 to 150.6 °C
c1coc(-c2nc(Cc3cccs3)nc3ccsc23)c1 [Example 117, 4-(2-furyl)-2-(2-thienylmethyl)thieno[3,2-d]pyrimidine]	149 °C
O=[N+]([O-])c1cc2nc(Cl)nc(-c3ccco3)c2s1 [Example 162, 2-chloro-4-(2-furyl)-6-nitrothieno[3,2-d]pyrimidine]	204 to 204.9 °C
CC(=O)Nc1csc2c(-c3ccco3)nc(N(C)C)nc12 [Example 56, N-(2-dimethylamino-4-(2-furyl)thieno[3,2-d]pyrimidine-7-yl)acetamide]	210.9 to 211.3 °C
CN(C)c1nc(-c2ccco2)c2scc(N)c2n1 [Example 51, 7-amino-N,N-dimethyl-4-(2-furyl)thieno[3,2-d]pyrimidine-2-amine]	145.8 to 146.5 °C
OC[C@H]1CCCN1c1nc(-c2ccco2)c2sccc2n1 [Example 38, (2R)-4-(2-furyl)-2-(2-hydroxymethylpyrrolidin-1-yl)thieno[3,2-d]pyrimidine]	109 to 110 °C
CCc1nc(-c2nncn2COCC[Si](C)(C)C)c2sccc2n1	< 100 °C
CCc1nc(-c2ncc(-c3ccccc3)o2)c2sccc2n1 [Example 106, 2-ethyl-4-(5-phenyl-2-oxazolyl)thieno[3,2-d]pyrimidine]	170 to 170.5 °C
CCc1nc(-c2ccco2)c2sc(C)cc2n1 [Example 188, 2-ethyl-4-(2-furyl)-6-methylthieno[3,2-d]pyrimidine]	104.7 to 104.8 °C
CC(=O)Nc1nc(-c2ccco2)c2sccc2n1 [Example 101, N-(4-(2-furyl)thieno[3,2-d]pyrimidin-2-yl)acetamide]	193.9 to 195 °C
CCOC(=O)Cn1ccnc1-c1nc(N(C)C)nc2ccsc12 [Example 177, N,N-dimethyl-4-((1-ethoxycarbonylmethyl)-1H-imidazol-2-yl)thieno[3,2-d]pyrimidine-2-amine]	209 to 210 °C
CN(C)c1nc(-c2cnn(COCC[Si](C)(C)C)c2)c2sccc2n1	60 to 61 °C
CN(C)c1nc(-c2nccn2CCO)c2sccc2n1 [Example 178, N,N-dimethyl-4-(1-(2-hydroxyethyl)-1H-imidazol-2-yl)thieno[3,2-d]pyrimidine-2-amine]	162.2 to 164.9 °C
CN(C)c1nc(-c2ccccc2)c2sccc2n1 [Example 159, N,N-dimethyl-4-phenylthieno[3,2-d]pyrimidine-2-amine]	112.9 to 114.1 °C
CS(=O)(=O)Nc1csc2c(-c3ccco3)nc(Cl)nc12 [Example 59, N-(2-chloro-4-(2-furyl)thieno[3,2-d]pyrimidine-7-yl)methanesulphonamide]	211.9 °C
CCc1nc(-c2nc(CC)nc3ccsc23)c2sccc2n1 [Example 119, 2-ethyl-4-(2-ethylthieno[3,2-d]pyrimidin-4-yl)thieno[3,2-d]pyrimidine]	179 °C
OCCNc1nc(-c2cnccn2)c2sccc2n1 [Example 34, N-(2-hydroxyethyl)-4-(2-pyrazinyl)thieno[3,2-d]pyrimidine-2-amine]	191.5 to 192.4 °C
OCCNc1nc(-c2cc3ccccc3s2)c2sccc2n1 [Example 20, 4-(2-benzothiophenyl)-N-(2-hydroxyethyl)thieno[3,2-d]pyrimidine-2-amine]	173.4 to 174.4 °C

The next lines start with the values.

melting point	Compound
131 °C	CCc1nc(-c2nc3ccccc3s2)c2sccc2n1 [Example 122, 4-(2-benzothiazolyl)-2-ethylthieno[3,2-d]pyrimidine]
146.5 to 147.2 °C	Clc1nc(-c2ccccc2)c2sccc2n1 [Example 158, 2-chloro-4-phenylthieno[3,2-d]pyrimidine]
117.7 to 118.2 °C	Clc1nc(-c2ccsc2)c2sccc2n1 [Example 156, 2-chloro-4-(3-thienyl)thieno[3,2-d]pyrimidine]
183.2 to 183.8 °C	Clc1nc(-c2cnccn2)c2sccc2n1 [Example 30, 2-chloro-4-(2-pyrazinyl)thieno[3,2-d]pyrimidine]
231 to 231.6 °C	Clc1nc(-c2cc3ccccc3s2)c2sccc2n1 [Example 17, 4-(2-benzothiophenyl)-2-chlorothieno[3,2-d]pyrimidine]
243 to 244 °C	Cc1cnc(-c2nc(Cl)nc3ccsc23)s1 [Example 102, 2-chloro-4-(5-methyl-2-thiazolyl)thieno[3,2-d]pyrimidine]
242.6 to 243.9 °C	CC(=O)Nc1nc(-c2nccs2)c2sccc2n1 [Example 116, N-(4-(2-thiazolyl)thieno[3,2-d]pyrimidin-2-yl)acetamide]
240 to 241 °C	Cc1nc(-c2nc(Cl)nc3ccsc23)sc1C [Example 103, 2-chloro-4-(4,5-dimethyl-2-thiazolyl)thieno[3,2-d]pyrimidine]
209.2 to 209.5 °C	Clc1nc(-c2ccccn2)c2sccc2n1 [Example 24, 2-chloro-4-(2-pyridyl)thieno[3,2-d]pyrimidine]
108 to 109 °C	C[Si](C)(C)CCOCn1cc(-c2nc(Cl)nc3ccsc23)cn1
221 to 222 °C	Cc1ccc(-c2nc(Cl)nc3ccsc23)nc1 [Example 109, 2-chloro-4-(5-methyl-2-pyridyl)thieno[3,2-d]pyrimidine]
141 to 142 °C	Cn1nccc1-c1nc(Cl)nc2ccsc12 [Example 182, 2-chloro-4-(1-methyl-1H-pyrazol-5-yl)thieno[3,2-d]pyrimidine]
110.2 to 111.4 °C	CCc1nc(-c2nncn2C)c2sccc2n1 [Example 187, 2-ethyl-4-(4-methyl-4H-1,2,4-triazol-3-yl)thieno[3,2-d]pyrimidine]
129.3 to 129.9 °C	Clc1nc(-c2ccoc2)c2sccc2n1 [Example 160, 2-chloro-4-(3-furyl)thieno[3,2-d]pyrimidine]
146.9 to 147.6 °C	Clc1nc(-c2ccco2)c2sccc2n1 [Example 3, 2-chloro-4-(2-furyl)thieno[3,2-d]pyrimidine]
128 to 129 °C	C=CCNc1nc(-c2nccs2)c2sccc2n1 [Example 112, N-allyl-4-(2-thiazolyl)thieno[3,2-d]pyrimidine-2-amine]
221.9 °C	c1csc(-c2nc(-c3nccs3)c3sccc3n2)c1 [Example 153, 4-(2-thiazolyl)-2-(2-thienyl)thieno[3,2-d]pyrimidine]
